Experimental findings from patent US8901118B2, “Compounds and methods for kinase modulation, and indications therefor” (Plexxikon Inc., priority 2010, dated 2014) are described below.

Test [1] concerns the target TrkC kinase (Homo sapiens, UniProt Q16288). Description: TrkC kinase biochemical activity assay (similar to TrkA assay). To be noted: read-out: Biochemical Inhibition IC50 TrkC. How it is done: In one assay the biochemical activity IC50 values are determined with respect to inhibition of TrkA kinase activity, where inhibition of phosphorylation of a peptide substrate is measured as a function of compound concentration. Compounds to be tested, dissolved in DMSO (1 μL), are added to a white 384-well plate (Costar #3705). Working stocks of TrkA kinase (UBI), biotin-(E4Y)10 substrate (Upstate Biotech, Cat#12-440), and ATP (Sigma, Cat#A-3377) are prepared in 25 mM Hepes pH 7.5, 10 mM MnCl2, 1 mM DTT, 0.01% BSA, and 0.01% Tween-20. All components are added to the 384-well plate for a final concentration of 1 ng/well TrkA, 30 nM biotin-(E4Y)10 and 100 μM ATP in a volume of 20 μL. Each sample is at 5% DMSO. The plate is shaken for 1 minute at 1200 rpm, spun for 1 minute at 1000 rpm, then incubated for 40 minutes at room temperature. Just before use, working stocks of donor and acceptor beads from the AlphaScreen PY20 Detection Kit (PerkinElmer, Cat#676601M) are prepared in 25 mM Hepes pH 7.5, 100 mM EDTA. 0.01% BSA. Donor Beads solution (Streptavidin beads) is added (5 μL) to each well to final bead concentration of 10 μg/mL. The plate is incubated at room temperature for 20 minutes. Acceptor Beads solution (PY20 coated beads) are then added to each well (5 μL) to a final concentration of bead at 10 μg/mL. The plates are incubated at room temperature for 60 minutes. Fluorescence signal is recorded on the Envision reader. Phosphorylated substrate results in binding of the PY20 antibody and association of the donor and acceptor beads such that signal correlates with kinase activity. The signal vs. compound concentration is used to determine the IC50. Similar assays are used for TrkB and Trk C kinase.

Test [2] has as its target CYP3A4(BQ) (Homo sapiens, UniProt P08684). Description: CYP3A4(BQ) inhibition. In kind it is in vitro ADME. To be noted: CYP3A4, substrate BQ; read-out: Cyp IC50 3A4(BQ). In a few lines: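 Inhibition of human CYP3A4 (BQ substrate) was measured by fluorescence, since blocking metabolism of a known substrate lowers the fluorescent product signal. Compounds dissolved in DMSO at 100 mM were diluted into acetonitrile and then into NADPH regeneration cofactor mix, serially diluted 1:1 across 10 points, and preincubated in 384 well plates for 10 minutes at 37° C.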

In test [3] the test system is BCR-TRK2 BaF3 cells. As to the kind of experiment: Splenomegaly mouse model, BCR-TRK2 BaF3 cells. In kind it is in vivo. How it is done:
(§1) BaF3 cells are engineered with any of BCR-FMS, BCR-TRK1 or BCR-TRK2 to assess in vivo inhibitory effects of Fms, TrkA or TrkB inhibition, respectively. BaF3 cells are maintained in growth media (RPMI containing 10% FBS, 1% PenStrep, 1% NEAA, and 1% L-Glutamine, supplemented with 5% murine IL-3 and 1 mg/mL G418). Four days prior to start, 2×10^6 cells are inoculated into a T150 vented flask using the growth media and incubated at 37° C. in 5% CO2 for three days. One day prior to start, cells are collected by centrifugation and are suspended in growth media without IL-3. On the day of cell implant, the cells are collected by centrifugation, rinsed 3×20 mL with RPMI, then are suspended in 5.4 mL of media and counted, then adjusted with additional RPMI as needed to give 5×10^7 cells/mL. On day 1, female nu/nu mice at 5-6 weeks of age are injected intravenously with BaF3 cells injected injecting 0.1 mL (5×10^6) cells in the tail vein (mice without cell injected are included as control group). Compound stocks in dimethylsulfoxide are stored at room temperature protected from light. Stocks are diluted prior to dosing, diluting 22 μL of compound stock into 858 μL of diluent (or 50 μL into 1950 μL) to provide vehicle of 1.0% Polysorbate 80, 0.5% hydroxypropyl methyl cellulose, with final dimethylsulfoxide at 2.5% in all dosing suspensions and vehicle control. Dosing suspension is prepared prior to use, mixing by inversion and sonication in a water bath to make a uniform suspension. On days 10-18, mice are treated with vehicle only or the desired level of compound in vehicle, ˜0.2 mL per 25 gm mouse, once a day by oral gavage, or in some instances, twice per day. On day 18, mice are administered a final dose and two hours later a plasma sample is taken. At four hours following the final dose, mice are sacrificed, an additional plasma sample is collected and mouse spleens are removed and weighed. The average spleen weight of vehicle control group mice is compared to the average spleen weight of the test compound mice. Percent spleen growth inhibition is calculated as 100×[(spleen weight vehicle control-spleen weight test compound)/spleen weight vehicle control]. In some instances, the compounds were not tested in all of the assays as indicated by NA in the table below.

Test [4] deals with BCR-FMS BaF3 cells. Description: Splenomegaly mouse model, BCR-FMS BaF3 cells. In kind it is in vivo. The procedure, abridged: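 Female nu/nu mice given 5×10^6 engineered BaF3 cells i.v. on day 1; compound in 1.0% Polysorbate 80/0.5% HPMC/2.5% DMSO dosed orally once (sometimes twice) daily, days 10-18. Spleens weighed 4 h after final dose; % spleen growth inhibition calculated versus vehicle control.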

In test [5] the test system is BCR-TRK1 BaF3 cells. As to the kind of experiment: Splenomegaly mouse model, BCR-TRK1 BaF3 cells. In kind it is in vivo. As for the experimental part: as §1, with “The average spleen weight of vehicle control group mice is compared to the average spleen weight of the test compound mice.” left out, “In some instances, the compounds were not tested in all of the assays as indicated by NA in the table below.” left out

Setting [6] is: dosed once per day at 10 mg per kg.

Bounds are passed on as bounds.

CYP3A4(BQ), sequence (P08684 whole entry): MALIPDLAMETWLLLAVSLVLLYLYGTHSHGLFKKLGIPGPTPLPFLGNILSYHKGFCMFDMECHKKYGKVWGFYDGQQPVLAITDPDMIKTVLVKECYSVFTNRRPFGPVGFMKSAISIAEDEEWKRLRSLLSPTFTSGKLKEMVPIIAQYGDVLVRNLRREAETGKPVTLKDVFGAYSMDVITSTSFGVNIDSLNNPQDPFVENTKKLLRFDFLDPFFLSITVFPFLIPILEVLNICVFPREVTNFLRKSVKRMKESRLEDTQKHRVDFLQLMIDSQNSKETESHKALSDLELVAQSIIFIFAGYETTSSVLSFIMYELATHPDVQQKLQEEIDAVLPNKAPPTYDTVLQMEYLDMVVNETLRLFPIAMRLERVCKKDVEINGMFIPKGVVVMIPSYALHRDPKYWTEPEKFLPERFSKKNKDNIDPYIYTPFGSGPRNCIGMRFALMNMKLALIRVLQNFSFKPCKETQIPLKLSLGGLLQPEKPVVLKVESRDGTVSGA
TrkC kinase, sequence (Q16288 32-839): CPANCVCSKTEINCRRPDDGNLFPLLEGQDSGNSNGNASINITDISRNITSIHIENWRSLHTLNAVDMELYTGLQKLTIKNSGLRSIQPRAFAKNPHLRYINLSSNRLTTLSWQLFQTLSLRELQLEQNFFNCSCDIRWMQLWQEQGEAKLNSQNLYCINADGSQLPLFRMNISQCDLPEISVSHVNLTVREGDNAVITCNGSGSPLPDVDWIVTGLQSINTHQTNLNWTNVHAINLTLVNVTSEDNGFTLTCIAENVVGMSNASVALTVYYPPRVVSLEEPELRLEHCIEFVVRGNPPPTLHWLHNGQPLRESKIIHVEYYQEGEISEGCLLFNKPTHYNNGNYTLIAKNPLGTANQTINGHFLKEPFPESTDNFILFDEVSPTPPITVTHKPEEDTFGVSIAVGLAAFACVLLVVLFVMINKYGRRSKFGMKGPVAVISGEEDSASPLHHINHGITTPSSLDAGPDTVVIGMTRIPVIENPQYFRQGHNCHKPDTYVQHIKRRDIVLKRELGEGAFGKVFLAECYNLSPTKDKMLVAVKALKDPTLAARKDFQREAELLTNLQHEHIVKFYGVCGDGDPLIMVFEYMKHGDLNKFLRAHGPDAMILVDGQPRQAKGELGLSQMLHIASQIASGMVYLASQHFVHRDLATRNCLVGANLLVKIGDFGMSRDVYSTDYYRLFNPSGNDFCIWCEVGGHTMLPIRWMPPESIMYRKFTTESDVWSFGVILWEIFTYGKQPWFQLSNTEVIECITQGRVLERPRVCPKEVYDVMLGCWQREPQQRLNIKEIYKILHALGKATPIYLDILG

For `COc1ccc(Nc2ccc(Cc3c[nH]c4ncc(C)cc34)c(F)n2)cn1` [Compound P-3019, [6-fluoro-5-(5-methyl-1H-pyrrolo[2,3-b]pyridin-3-ylmethyl)-pyridin-2-yl]-(6-methoxy-pyridin-3-yl)-amine], the half-maximal inhibitory concentration (IC50) – broadly, the concentration that inhibits the measured activity by half – in test [1] is < 0.1 µM; in test [2], > 10 µM. In addition, the “% spleen growth inhibition, TrkB” value in test [3] (setting [6]) worked out at 14%. In addition, the “% spleen growth inhibition, Fms” value in test [4] (setting [6]) amounted to 40%.

For `CCOc1ccc(Nc2ncc(Cc3c[nH]c4ncc(C)cc34)cn2)cn1` [Compound P-3027, (6-Ethoxy-pyridin-3-yl)-[5-(5-methyl-1H-pyrrolo[2,3-b]pyridin-3-ylmethyl)-pyrimidin-2-yl]-amine], in test [1], the IC50 was < 0.1 µM. In addition, the “% spleen growth inhibition, TrkB” value in test [3] (setting [6]) stood at 2%. Also, in test [4] (setting [6]), the “% spleen growth inhibition, Fms” value is on record as 42%.

Regarding `COc1ncnc2[nH]cc(Cc3ccc(Nc4ccc(C5CC5)nc4)nc3F)c12` [Compound P-4004, (6-Cyclopropyl-pyridin-3-yl)-[6-fluoro-5-(4-methoxy-7H-pyrrolo[2,3-d]pyrimidin-5-ylmethyl)-pyridin-2-yl]-amine], the 50% inhibitory concentration (IC50) in test [2] is > 10 µM. Besides, the “% spleen growth inhibition, TrkB” value came out at 91% in test [3] (dosed at 30 mg/kg) and 41% in test [3] (setting [6]). Further, the “% spleen growth inhibition, Fms” value in test [4] (dosed at 30 mg/kg) came out at 70%; in test [4] (setting [6]), 36%. Also, the results for the “% spleen growth inhibition, TrkA” value in test [5] (dosed at 30 mg/kg) and in test [5] (setting [6]) were 40% and 16%, respectively.

Turning to `CCOc1ccc(Nc2ccc(Cc3c[nH]c4ncnc(OC)c34)c(F)n2)cn1` [Compound P-4005, (6-Ethoxy-pyridin-3-yl)-[6-fluoro-5-(4-methoxy-7H-pyrrolo[2,3-d]pyrimidin-5-ylmethyl)-pyridin-2-yl]-amine], the concentration for half-maximal inhibition (IC50) in test [2] is > 10 µM. Also, the “% spleen growth inhibition, TrkB” value in test [3] (setting [6]) was found to be 35%. Besides, the “% spleen growth inhibition, Fms” value in test [4] (setting [6]) is listed as 65%. Besides, in test [5] (setting [6]), the “% spleen growth inhibition, TrkA” value is reported as 25%.

For `CCc1ccc(Nc2ccc(Cc3c[nH]c4ncnc(C5CC5)c34)c(F)n2)cn1` [Compound P-4028, [5-(4-Cyclopropyl-7H-pyrrolo[2,3-d]pyrimidin-5-ylmethyl)-6-fluoro-pyridin-2-yl]-(6-ethyl-pyridin-3-yl)-amine], the half-inhibitory concentration (IC50) in test [2] was > 10 µM. In addition, in test [3] (setting [6]), the “% spleen growth inhibition, TrkB” value worked out at 88%. Moreover, the “% spleen growth inhibition, Fms” value in test [4] (setting [6]) is 86%.

With `Cc1ccc(Nc2ccc(Cc3c[nH]c4ncnc(C5CC5)c34)c(F)n2)cn1` [Compound P-4030, [5-(4-Cyclopropyl-7H-pyrrolo[2,3-d]pyrimidin-5-ylmethyl)-6-fluoro-pyridin-2-yl]-(6-methyl-pyridin-3-yl)-amine], in test [2], the IC50 is > 10 µM. Besides, in test [3] (setting [6]), the “% spleen growth inhibition, TrkB” value worked out at 50%. The “% spleen growth inhibition, Fms” value in test [4] (setting [6]) is 58%.
